From patent US9034866B2 (Genentech, Inc., priority 2012, dated 2015) come the findings set out here.

Assay [1] has as its system p52 (NF-kB2) nuclear translocation in HeLa cells. In words: p52 nuclear translocation assay (non-classical NF-kB signaling), high content imaging. The format is cell-based. Particulars: Homo sapiens, 100 ng/mL anti-lymphotoxin beta receptor antibody for 5 hours, read-out: p52 HeLa Transloc Assay (IC50). As to the method: (§1) (2) A second set of cell assay are used to define the selectivity of NIK inhibitors toward inhibition of classical vs. non-classical NF-kB signaling and rely on quantification of the nuclear translocation of p52 (NF-kB2) and REL-A (p65) using high content cellular imaging. For the p52 (non-classical NF-kB signaling) nuclear translocation assay, HeLa cells are treated with different concentrations of compounds (0.2% DMSO final) in medium containing 10% fetal bovine serum and then stimulated with 100 ng/mL, of an anti-lymphotoxin beta receptor antibody (R&D Systems) for 5 hours. In the REL-A nuclear translocation assay, HeLa cells are incubated with compounds (0.2% DMSO final) for 4.5 hours in medium containing 10% fetal bovine serum before stimulating them with 10 ng/mL tumor necrosis factor (TNF)-α (R&D Systems) for 30 minutes. Cells are fixed with 4% paraformaldehyde, permeabilized by adding 0.1% Triton X-100 in phosphate buffered saline, and then are incubated with either 2 ug/mL anti-p52 antibody (Millipore) or 400 ng/mL anti-REL-A (p65) antibody (Santa Cruz Biotechnology). Finally, the cells are incubated with an Alexa488-labeled secondary antibody (Invitrogen) and DRAQ5 DNA stain (Biostatus). Imaging is carried out using an Opera reader (Perkin Elmer) and data are analyzed with the aid of Acapella software (Perkin Elmer). The p52 or REL-A translocation into the nucleus is quantified by the ratio of the nuclear to cytoplasmic signal intensity. […] The compounds in listed in Table 1 have the corresponding inhibitory value (IC50 in micromolar) for NIK p52 Translocation Assay as set forth in Table 2.

In assay [2] the target is nuclear factor-kappa B (NF-kB)-inducing kinase (NIK) (Homo sapiens (Human), UniProt Q99558). In words: NIK Enzyme Inhibition Assay (Transcreener ADP fluorescence polarization). The format is biochemical. Particulars: purified NIK 0.2-1 nM, 10 uM ATP, Morrison's quadratic equation; read-out: NIK ADP-FP (Ki uM). An outline of the steps:
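Baculovirus/insect-cell-expressed NIK (0.2-1 nM) incubated with compounds 1-3.5 h at 10 uM ATP. Buffer: 50 mM HEPES pH 7.2, 10 mM MgCl2, 2 mM DTT, 1% DMSO. ADP detected by Transcreener fluorescence polarization (ADP antibody, AlexaFluor 633 tracer) after EDTA quench.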

Assay [3] concerns REL-A (p65) nuclear translocation in HeLa cells. Briefly: REL-A nuclear translocation assay (classical NF-kB signaling), high content imaging. The following applies: Homo sapiens, compounds 4.5 hours, then 10 ng/mL TNF-α for 30 minutes, read-out: REL-A HeLa Transloc Assay (IC50). The class given is cell-based. As to the method:
as §1
The compounds in listed in Table 1 has the corresponding inhibitory value (IC50 in micromolar) for NIK RelA Translocation Assay as set forth in Table 2.

SMILES strings stand for the structures. Where two headings read alike, the source gives them in different places.

nuclear factor-kappa B (NF-kB)-inducing kinase (NIK), sequence (Q99558 whole entry): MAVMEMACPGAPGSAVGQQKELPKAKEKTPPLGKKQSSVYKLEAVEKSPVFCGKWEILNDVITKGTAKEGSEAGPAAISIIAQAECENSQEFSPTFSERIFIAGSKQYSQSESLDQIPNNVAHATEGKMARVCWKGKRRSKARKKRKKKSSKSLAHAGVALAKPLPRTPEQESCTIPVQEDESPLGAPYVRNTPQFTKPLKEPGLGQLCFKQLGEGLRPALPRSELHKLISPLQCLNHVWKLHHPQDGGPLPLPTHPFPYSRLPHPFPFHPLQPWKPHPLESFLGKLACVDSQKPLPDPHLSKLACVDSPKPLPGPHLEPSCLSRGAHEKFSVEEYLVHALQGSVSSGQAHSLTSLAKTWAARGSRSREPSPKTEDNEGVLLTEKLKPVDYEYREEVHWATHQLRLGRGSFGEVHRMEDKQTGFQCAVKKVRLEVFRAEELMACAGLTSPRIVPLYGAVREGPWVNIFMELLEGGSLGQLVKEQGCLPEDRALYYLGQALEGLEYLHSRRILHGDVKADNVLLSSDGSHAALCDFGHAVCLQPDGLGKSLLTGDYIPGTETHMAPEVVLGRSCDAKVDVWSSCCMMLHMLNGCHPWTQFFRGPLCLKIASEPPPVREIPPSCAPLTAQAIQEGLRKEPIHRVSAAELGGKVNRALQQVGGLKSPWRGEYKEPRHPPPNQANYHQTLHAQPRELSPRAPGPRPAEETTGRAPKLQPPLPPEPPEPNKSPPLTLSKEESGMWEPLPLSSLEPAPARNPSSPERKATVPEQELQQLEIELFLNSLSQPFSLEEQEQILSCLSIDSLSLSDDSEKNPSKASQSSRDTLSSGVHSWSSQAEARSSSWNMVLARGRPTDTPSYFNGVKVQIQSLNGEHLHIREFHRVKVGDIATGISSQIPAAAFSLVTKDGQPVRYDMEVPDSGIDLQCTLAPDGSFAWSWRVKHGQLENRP

The IC50 is the concentration needed to halve the response being measured. For orientation: Ki means the dissociation constant of the complex between target and ligand, obtained from inhibition or displacement. Turning to `CC(C)(O)C#Cc1cc2c(cc1F)OCCn1c-2nc(C(N)=O)c1-c1nc(C2CC2)n[nH]1`, the IC50 in assay [1] (HeLa, 5 h) is 0.112 µM. In addition, the Ki in assay [2] stood at 0.002 µM.
The matching figures for `Cc1nc([C@](C)(O)C#Cc2cc3c(cc2F)C2CC(C2)n2cc(C(N)=O)nc2-3)no1`: 0.792 µM and 0.003 µM.
The corresponding values for `CNC(=O)c1c(C(N)=O)nc2n1C1CC(C1)c1cc(F)c(C#C[C@@](C)(O)c3cc(C)on3)cc1-2` are 0.683 µM and 0.008 µM.
As for `CC(C)(O)C#Cc1cc2c(cc1F)OCCn1c-2nc(C(N)=O)c1C(O)c1cccc(C(F)(F)F)c1` (stereo not shown), the half-inhibitory concentration (IC50) in assay [1] (HeLa, 5 h) worked out at 0.344 µM. Further, in assay [2], the Ki turned out to be 0.019 µM.
In the case of `COC[C@](C)(O)C#Cc1cc2c(cc1F)C1CC(C1)n1cc(C(N)=O)nc1-2`, the IC50 is 2.1 µM in assay [1] (HeLa, 5 h) and greater than 20 µM in assay [3] (HeLa).
Consider `Cc1cc([C@](C)(O)C#Cc2ccc3c(c2)-c2nc(C(N)=O)c([C@H](O)c4ccnn4C)n2C2CC3C2)no1`, for which, in assay [1] (HeLa, 5 h), the half-inhibitory concentration (IC50) was determined as 1.2 µM.
For `Cc1nc([C@](C)(O)C#Cc2ccc3c(c2)-c2nc(C(N)=O)sc2[C@@H](F)CO3)no1`, the concentration for half-maximal inhibition (IC50) in assay [3] (HeLa) is greater than 20 µM.
Same read-out and setting: the value for `Cc1nc([C@](C)(O)C#Cc2ccc3c(c2)-c2nc(C(N)=O)sc2[C@@](C)(F)CO3)no1` was greater than 20 µM; that for `CN1CC[C@@](O)(C#Cc2ccc3c(c2)-n2nc(C(N)=O)cc2[C@H](F)CO3)C1=O` was greater than 20 µM.
Regarding `Cc1cc([C@](C)(O)C#Cc2ccc3c(c2)-n2nc(C(N)=O)cc2[C@H](F)CO3)no1`, the IC50 in assay [1] (HeLa, 5 h) is 0.379 µM; in assay [3] (HeLa), greater than 20 µM.
The matching figures for `COC[C@](C)(O)C#Cc1ccc2c(c1)-c1nc(C(N)=O)sc1[C@H](F)CO2`: 0.682 µM and 15.3 µM.
The corresponding values for `CN1CC[C@@](O)(C#Cc2cc3c(cc2F)C2CC(C2)c2c-3nc(C(N)=O)n2C)C1=O` (mixture of isomers) [Example 381, (±)-10-[3-hydroxy-3-(2-pyridyl)but-1-ynyl]-5,6,7,12-tetrahydro-5,7 methanobenzo[c]imidazo[1,2-a]azepine-2-carboxamide] are 0.285 µM and greater than 20 µM.
Consider `CC(O)(C#Cc1cc2c(cc1F)C1CC(C1)n1cc(C(N)=O)nc1-2)CF` (racemic), for which the IC50 in assay [1] (HeLa, 5 h) came out at 0.424 µM. In assay [2], the Ki was determined as 0.0031 µM.
Take `CN1CCC(O)(C#Cc2ccc3c(c2)-c2nc(C(N)=O)sc2CCO3)C1=O` (racemic): the IC50 in assay [1] (HeLa, 5 h) was 0.3 µM; in assay [3] (HeLa) it was greater than 20 µM.
The corresponding values for `CN1CCC(O)(C#Cc2cc3c(cc2F)OCCn2cc(C(N)=O)nc2-3)C1=O` (racemic) are 4.1 µM and greater than 20 µM.
The corresponding values for `CC(C)(O)C#Cc1cc2c(cc1F)C1CC(C1)n1c-2nc(C(N)=O)c1CNC(=O)C1CC1` (racemic) are 1.4 µM and greater than 20 µM.
The corresponding values for `CNC(=O)c1c(C(N)=O)nc2n1C1CC(C1)c1ccc(C#CC(C)(C)O)cc1-2` (racemic) are 0.736 µM and greater than 20 µM.
`CNC(=O)c1c(C(N)=O)nc2n1C1CC(C1)c1ccc(C#CC3(O)CCCC3)cc1-2` (racemic): the IC50 in assay [1] (HeLa, 5 h) is 0.709 µM; in assay [3] (HeLa) it was greater than 20 µM.
The matching figures for `CN1CCC[C@@](O)(C#Cc2ccc3c(c2)-c2nc(C(N)=O)sc2C(F)(F)CO3)C1=O` (racemic): 0.184 µM and greater than 20 µM.
Turning to `Cc1nc([C@](C)(O)C#Cc2ccc3c(c2)-c2nc(C(N)=O)sc2[C@@H](C)CO3)no1` (racemic), the 50% inhibitory concentration (IC50) in assay [3] (HeLa) is greater than 20 µM.
As for `C[C@H]1COc2ccc(C#C[C@]3(O)CCCN(C)C3=O)cc2-c2nc(C(N)=O)sc21` (racemic) [Example 501], the IC50 in assay [3] (HeLa) is greater than 20 µM.
Still for that read-out and setting: the result for `Cc1cc([C@@](C)(O)C#Cc2ccc3c(c2)-n2nc(C(N)=O)cc2[C@H](C)CO3)no1` (racemic) [Example 513] reads greater than 20 µM.
Still for that read-out and setting: the value for `Cc1cc([C@](C)(O)C#Cc2cc3c(cc2F)OC[C@H](N(C)C)c2sc(C(N)=O)nc2-3)no1` (single isomer, unassigned) [Example 257] was 20 µM.
For the compound `CNC(=O)c1c(C(N)=O)nc2n1CCOc1cc(F)c(C#CC(C)(O)COC)cc1-2` (stereo not shown) [Example 108], in assay [3], the half-inhibitory concentration (IC50) was determined as 20 µM.
For `CNC(=O)c1c(C(N)=O)nc2n1CCOc1cc(F)c(C#CC(C)(O)CF)cc1-2` (stereo not shown) [Example 109], the half-maximal inhibitory concentration (IC50) in assay [1] was found to be 0.272 µM.
As to `CC(O)(C#Cc1cc2c(cc1F)OCCn1cc(C(N)=O)nc1-2)c1nccs1` (stereo not shown) [Example 144], the half-maximal inhibitory concentration (IC50) in assay [1] (HeLa, 5 h) turned out to be 0.483 µM.
As for `Cc1cc([C@](C)(O)C#Cc2cc3c(cc2F)OC[C@@H](N(C)C)c2sc(C(N)=O)nc2-3)no1` [Example 254], the concentration for half-maximal inhibition (IC50) in assay [3] (HeLa) came to 20 µM.
For the compound `Cc1cc([C@](C)(O)C#Cc2ccc3c(c2)-c2nc(C(N)=O)c([C@@H](O)c4ccnn4C)n2C2CC3C2)no1` [Example 359], the 50% inhibitory concentration (IC50) in assay [1] (HeLa, 5 h) worked out at 1.2 µM.
With `Cc1nc([C@](C)(O)C#Cc2ccc3c(c2)-c2nc(C(N)=O)sc2[C@H](F)CO3)no1` [Example 464], the concentration for half-maximal inhibition (IC50) in assay [3] (HeLa) is greater than 20 µM.
Still for that read-out and setting: the result for `CN1CC[C@@](O)(C#Cc2ccc3c(c2)-c2nc(C(N)=O)sc2[C@](O)(CF)CO3)C1=O` [Example 465] reads greater than 20 µM; that for `Cc1nc([C@](C)(O)C#Cc2ccc3c(c2)-c2nc(C(N)=O)sc2[C@](C)(F)CO3)no1` [Example 469], greater than 20 µM.
Regarding `C[C@@H]1COc2ccc(C#C[C@]3(O)CCCN(C)C3=O)cc2-c2nc(C(N)=O)sc21` [Example 493, 10-[2-[(3R)-3-hydroxy-1-methyl-2-oxo-pyrrolidin-3-yl]ethynyl]-N3-methyl-5,6,7,12-tetrahydro-5,7-methanobenzo[c]imidazo[1,2-a]azepine-2,3-dicarboxamide], in assay [3] (HeLa), the IC50 was greater than 20 µM.
The same measure, in the same setting: the result for `Cc1cc([C@@](C)(O)C#Cc2ccc3c(c2)-n2nc(C(N)=O)cc2[C@@H](C)CO3)no1` [Example 519] reads greater than 20 µM.
For the compound `CN1CC[C@@](O)(C#Cc2ccc3c(c2)-n2nc(C(N)=O)cc2C2(COC2)CO3)C1=O` [Example 714, (R)-9-((3-hydroxy-1-methyl-2-oxopyrro-lidin-3-yl)ethynyl)-5H-spiro[ben-zo[b]pyrazolo[1,5-d][1,4]oxazepine-4,3′-oxetane]-2-carboxamide], the inhibition constant (Ki) in assay [2] turned out to be 0.0033 µM.
The same measure, in the same setting: the result for `NC(=O)c1cc2n(n1)-c1cc(C#CC3(O)CCCC3)ccc1OCC21COC1` [Example 715, 9-((1-hydroxycyclopentyl)ethynyl)-5H-spiro[benzo[b]pyrazolo[1,5-d][1,4]oxa-zepine-4,3′-oxetane]-2-carboxamide] reads 0.1 µM; that for `Cc1cc([C@](C)(O)C#Cc2ccc3c(c2)-n2nc(C(N)=O)cc2C2(CCC2)CO3)no1` [Example 716, (R)-9-(3-hydroxy-3-(5-methylisoxazol-3-yl)but-1-yn-1-yl)-5H-spiro[benzo[b]py-razolo[1,5-d][1,4]oxazepine-4,1′-cyclo-butane]-2-carboxamide], 0.008 µM; that for `CN1CC[C@@](O)(C#Cc2ccc3c(c2)-n2nc(C(N)=O)cc2C2(CCC2)CO3)C1=O` [Example 717, (R)-9-((3-hydroxy-1-methyl-2-oxopyrro-lidin-3-yl)ethynyl)-5H-spiro[ben-zo[b]pyrazolo[1,5-d][1,4]oxazepine-4,1′-cyclobutane]-2-carboxamide], 0.0005 µM.
For the compound `CN1CC[C@@](O)(C#Cc2ccc3c(c2)-n2nc(C(N)=O)c(C(F)F)c2CCO3)C1=O` [Example 718, (R)-3-(difluoromethyl)-9-((3-hydroxy-1-methyl-2-oxopyrrolidin-3-yl)ethynyl)-4,5-dihydrobenzo[b]pyrazolo[1,5-d][1,4]oxazepine-2-carboxamide], the inhibitory constant (Ki) in assay [2] is 0.0003 µM.
The same measure, in the same setting: the result for `CN1CC[C@@](O)(C#Cc2ccc3c(c2)-n2nc(C(N)=O)c(Cl)c2C(F)(F)CO3)C1=O` [Example 719, (R)-3-chloro-4,4-difluoro-9-((3-hydroxy-1-methyl-2-oxopyrrolidin-3-yl)ethynyl)-4,5-dihydrobenzo[b]pyrazolo[1,5-d][1,4]oxazepine-2-carboxamide] reads 0.0004 µM; that for `CN1CC[C@@](O)(C#Cc2ccc3c(c2)-n2nc(C(N)=O)c(CO)c2CCO3)C1=O` [Example 720, (R)-9-((3-hydroxy-1-methyl-2-oxopyrro-lidin-3-yl)ethynyl)-3-(hydroxymethyl)-4,5-dihydrobenzo[b]pyrazolo[1,5-d][1,4]oxazepine-2-carboxamide], 0.001 µM.
